ChEMBL document CHEMBL1131782, “Synthesis, biological activity, and absolute stereochemical assignment of NPS 1392: a potent and stereoselective NMDA receptor antagonist” (Bioorg Med Chem Lett, 1999)

Columns and labels:
Glutamate NMDA receptor [1] = assay: Potency towards NMDA receptor measured as inhibition of (+)-[3-3H]MK-801 binding from synaptic plasma membrane obtained from rat cortex
Glutamate NMDA receptor [2] = assay: Functional NMDA receptor antagonism expressed as inhibition of NMDA/glycine induced increase in cytosolic calcium in cultured rat cerebellar granule cells

SMILES | IC50 (Glutamate NMDA receptor [1]) [nM] | IC50 (Glutamate NMDA receptor [2]) [nM]
NCCC(c1cccc(F)c1)c1cccc(F)c1 | 230 | 63
C[C@H](CN)C(c1cccc(F)c1)c1cccc(F)c1 | 2000 | 384
C[C@@H](CN)C(c1cccc(F)c1)c1cccc(F)c1 | 141 | 75
